Experimental data from publication PMC7071059, “Targeting Receptor Tyrosine Kinase VEGFR-2 in Hepatocellular Cancer: Rational Design, Synthesis and Biological Evaluation of 1,2-Disubstituted Benzimidazoles” (Molecules, 2020).

How the values were obtained:
MCF7 = experiment: NCI 60 one dose (10 μM) anticancer assay; format: cell-based; conditions: Homo sapiens, 10 µM one dose, Breast Cancer, read-out: Growth Inhibition % MCF7
Procedure: (§1) Some of the synthesized compounds were selected by the NCI, Bethesda, MD, USA for evaluation of their anticancer activity. An in vitro one dose (10 μM) anticancer assay was conducted on a full NCI 60-cell line panel derived from 9 different cancer types. Table 2 presents the percent of growth inhibition of some cell lines. […] K-562 and MOLT-4 from leukemia, NCI-H522 from non-small cell lung cancer, HCT-116 from colon cancer, SK-MEL-5 and UACC-62 from melanoma, UO-31 from renal cancer, PC-3 from prostate cancer and HS 578T and T-47D from breast cancer are the most sensitive cell lines to the tested compounds. No growth inhibition was observed from the selected compounds against COLO205, HCC-2998, MALME-3M, SK-MEL-28, DU-145 and BT-549 cell lines. […] Against UO-31 from renal cancer and PC-3 from prostate cancer, it inhibited the growth of 44% and 58% of the cancer cells, respectively.

U251 = experiment: NCI 60 one dose (10 μM) anticancer assay; format: cell-based; conditions: Homo sapiens, U-251; 10 µM one dose; CNS Cancer; read-out: Growth Inhibition % U251
Procedure: as §1

786-0 = experiment: NCI 60 one dose (10 μM) anticancer assay; format: cell-based; conditions: Homo sapiens, 10 µM one dose, Renal Cancer, read-out: Growth Inhibition % 786-0
Procedure: as §1

TK-10 = experiment: NCI 60 one dose (10 μM) anticancer assay; format: cell-based; conditions: Homo sapiens, 10 µM one dose, Renal Cancer, read-out: Growth Inhibition % TK-10
Procedure: as §1

NCI-H522 = experiment: NCI 60 one dose (10 μM) anticancer assay; format: cell-based; conditions: Homo sapiens, 10 µM one dose, Non-small cell lung Cancer, read-out: Growth Inhibition % NCI-H522
Procedure: as §1

NCI-H23 = experiment: NCI 60 one dose (10 μM) anticancer assay; format: cell-based; conditions: Homo sapiens, 10 µM one dose, Non-small cell lung Cancer, read-out: Growth Inhibition % NCI-H23
Procedure: as §1

SNB-19 = experiment: NCI 60 one dose (10 μM) anticancer assay; format: cell-based; conditions: Homo sapiens, 10 µM one dose, CNS Cancer, read-out: Growth Inhibition % SNB-19
Procedure: as §1

SK-MEL-5 = experiment: NCI 60 one dose (10 μM) anticancer assay; format: cell-based; conditions: Homo sapiens, 10 µM one dose, Melanoma, read-out: Growth Inhibition % SK-MEL-5
Procedure: as §1

A549/ATTC = experiment: NCI 60 one dose (10 μM) anticancer assay; format: cell-based; conditions: Homo sapiens, 10 µM one dose, Non-small cell lung Cancer, read-out: Growth Inhibition % A549/ATTC
Procedure: as §1

NCI/ADR-RES = experiment: NCI 60 one dose (10 μM) anticancer assay; format: cell-based; conditions: Homo sapiens, 10 µM one dose, Ovarian Cancer, read-out: Growth Inhibition % NCI/ADR-RES
Procedure: as §1

NCI-H460 = experiment: NCI 60 one dose (10 μM) anticancer assay; format: cell-based; conditions: Homo sapiens, 10 µM one dose, Non-small cell lung Cancer, read-out: Growth Inhibition % NCI-H460
Procedure: as §1

SR = experiment: NCI 60 one dose (10 μM) anticancer assay; format: cell-based; conditions: Homo sapiens, 10 µM one dose, Leukemia, read-out: Growth Inhibition % SR
Procedure: as §1

UACC-62 = experiment: NCI 60 one dose (10 μM) anticancer assay; format: cell-based; conditions: Homo sapiens, 10 µM one dose, Melanoma, read-out: Growth Inhibition % UACC-62
Procedure: as §1

MDA-MB-435 = experiment: NCI 60 one dose (10 μM) anticancer assay; format: cell-based; conditions: Homo sapiens, 10 µM one dose, Melanoma, read-out: Growth Inhibition % MDA-MB-435
Procedure: as §1

KM12 = experiment: NCI 60 one dose (10 μM) anticancer assay; format: cell-based; conditions: Homo sapiens, 10 µM one dose, Colon Cancer, read-out: Growth Inhibition % KM12
Procedure: as §1

HS 578T = experiment: NCI 60 one dose (10 μM) anticancer assay; format: cell-based; conditions: Homo sapiens, 10 µM one dose, Breast Cancer, read-out: Growth Inhibition % HS 578T
Procedure: as §1

T-47D = experiment: NCI 60 one dose (10 μM) anticancer assay; format: cell-based; conditions: Homo sapiens, T47D; 10 µM one dose; Breast Cancer; read-out: Growth Inhibition % T-47D
Procedure: as §1

MOLT-4 = experiment: NCI 60 one dose (10 μM) anticancer assay; format: cell-based; conditions: Homo sapiens, 10 µM one dose, Leukemia, read-out: Growth Inhibition % MOLT-4
Procedure: as §1

M14 = experiment: NCI 60 one dose (10 μM) anticancer assay; format: cell-based; conditions: Homo sapiens, 10 µM one dose, Melanoma, read-out: Growth Inhibition % M14
Procedure: as §1

OVCAR-8 = experiment: NCI 60 one dose (10 μM) anticancer assay; format: cell-based; conditions: Homo sapiens, 10 µM one dose, Ovarian Cancer, read-out: Growth Inhibition % OVCAR-8
Procedure: as §1

MDA-MB-468 = experiment: NCI 60 one dose (10 μM) anticancer assay; format: cell-based; conditions: Homo sapiens, 10 µM one dose, Breast Cancer, read-out: Growth Inhibition % MDA-MB-468
Procedure: as §1

MDA-MB-231/ATTC = experiment: NCI 60 one dose (10 μM) anticancer assay; format: cell-based; conditions: Homo sapiens, 10 µM one dose, Breast Cancer, read-out: Growth Inhibition % MDA-MB-231/ATTC
Procedure: as §1

UO-31 = experiment: NCI 60 one dose (10 μM) anticancer assay; format: cell-based; conditions: Homo sapiens, 10 µM one dose, Renal Cancer, read-out: Growth Inhibition % UO-31
Procedure: as §1

NCI-H322M = experiment: NCI 60 one dose (10 μM) anticancer assay; format: cell-based; conditions: Homo sapiens, 10 µM one dose, Non-small cell lung Cancer, read-out: Growth Inhibition % NCI-H322M
Procedure: as §1

OVCAR-4 = experiment: NCI 60 one dose (10 μM) anticancer assay; format: cell-based; conditions: Homo sapiens, 10 µM one dose, Ovarian Cancer, read-out: Growth Inhibition % OVCAR-4
Procedure: as §1

SW-620 = experiment: NCI 60 one dose (10 μM) anticancer assay; format: cell-based; conditions: Homo sapiens, 10 µM one dose, Colon Cancer, read-out: Growth Inhibition % SW-620
Procedure: as §1

HL-60(TB) = experiment: NCI 60 one dose (10 μM) anticancer assay; format: cell-based; conditions: Homo sapiens, 10 µM one dose, Leukemia, read-out: Growth Inhibition % HL-60(TB)
Procedure: as §1

HT29 = experiment: NCI 60 one dose (10 μM) anticancer assay; format: cell-based; conditions: Homo sapiens, HT-29; 10 µM one dose; Colon Cancer; read-out: Growth Inhibition % HT29
Procedure: as §1

HepG2 cell line = experiment: In vitro cytotoxic activity, Sulfo-Rhodamine-B (SRB) assay; format: cell-based, human; conditions: Homo sapiens, HepG2, 48 h, SRB assay, 48 h; mean of three independent experiments; read-out: IC50 (μM) on HepG2 Cell Line

Compound	inhibition at 10 µM (MCF7)	inhibition at 10 µM (U251)	inhibition at 10 µM (786-0)	inhibition at 10 µM (TK-10)	inhibition at 10 µM (NCI-H522)	inhibition at 10 µM (NCI-H23)	inhibition at 10 µM (SNB-19)	inhibition at 10 µM (SK-MEL-5)	inhibition at 10 µM (A549/ATTC)	inhibition at 10 µM (NCI/ADR-RES)	inhibition at 10 µM (NCI-H460)	inhibition at 10 µM (SR)	inhibition at 10 µM (UACC-62)	inhibition at 10 µM (MDA-MB-435)	inhibition at 10 µM (KM12)	inhibition at 10 µM (HS 578T)	inhibition at 10 µM (T-47D)	inhibition at 10 µM (MOLT-4)	inhibition at 10 µM (M14)	inhibition at 10 µM (OVCAR-8)	also measured
Cc1ccc(-c2nc3ccccc3n2CC(=O)N/N=C/c2ccc(OCc3ccccc3)cc2)o1 [Compound 17d, (E)-N′-(4-(Benzyloxy)benzylidene)-2-(2-(5-methylfuran-2-yl)-1H-benzo[d]imidazol-1-yl)acetohydrazide]	19%	< 10%	< 10%	< 10%	27%	< 10%	< 10%	15%	23%	< 10%	< 10%	16%	< 10%	< 10%	< 10%	32%	31%	40%	< 10%	20%	inhibition at 10 µM (MDA-MB-468): < 10%; inhibition at 10 µM (MDA-MB-231/ATTC): 18%; inhibition at 10 µM (UO-31): 30%; inhibition at 10 µM (NCI-H322M): 20%; inhibition at 10 µM (OVCAR-4): < 10%; inhibition at 10 µM (SW-620): < 10%; inhibition at 10 µM (HL-60(TB)): 19%; inhibition at 10 µM (HT29): < 10%; IC50 (HepG2 cell line): 15.6 µM
COc1cc(/C=N/NC(=O)Cn2c(C(C)C)nc3ccccc32)ccc1OCc1ccccc1 [Compound 17e, (E)-N′-(4-(Benzyloxy)-3-methoxybenzylidene)-2-(2-isopropyl-1H-benzo[d]imidazol-1-yl)acetohydrazide]	< 10%	< 10%	< 10%	< 10%	32%	< 10%	< 10%	17%	< 10%	< 10%	< 10%	< 10%	22%	< 10%	< 10%	< 10%	27%	22%	< 10%	< 10%	inhibition at 10 µM (MDA-MB-468): < 10%; inhibition at 10 µM (MDA-MB-231/ATTC): < 10%; inhibition at 10 µM (UO-31): 20%; inhibition at 10 µM (NCI-H322M): < 10%; inhibition at 10 µM (OVCAR-4): < 10%; inhibition at 10 µM (SW-620): < 10%; inhibition at 10 µM (HL-60(TB)): < 10%; inhibition at 10 µM (HT29): < 10%; IC50 (HepG2 cell line): 24.1 µM
COc1cc(/C=N/NC(=O)Cn2c(-c3ccc(C)o3)nc3ccccc32)ccc1OCc1ccccc1 [Compound 17f, (E)-N′-(4-(Benzyloxy)-3-methoxybenzylidene)-2-(2-(5-methylfuran-2-yl)-1H-benzo[d]imidazol-1-yl)acetohydrazide]	24%	< 10%	< 10%	< 10%	26%	< 10%	20%	23%	27%	< 10%	< 10%	25%	22%	< 10%	15%	30%	31%	50%	< 10%	19%	inhibition at 10 µM (MDA-MB-468): 23%; inhibition at 10 µM (MDA-MB-231/ATTC): 21%; inhibition at 10 µM (UO-31): 38%; inhibition at 10 µM (NCI-H322M): < 10%; inhibition at 10 µM (OVCAR-4): < 10%; inhibition at 10 µM (SW-620): < 10%; inhibition at 10 µM (HL-60(TB)): < 10%; inhibition at 10 µM (HT29): < 10%; IC50 (HepG2 cell line): 42.5 µM
